Reference: patent US10478425B2, “5-phenylazaindole derivative having AMPK-activating activity” (Shionogi & Co., Ltd., priority 2016, dated 2019)

Biological target: T1, Human AMPK α2β2γ1 (Homo sapiens, UniProt O43741+P54646)
T1 construct: The full length cDNAs of human AMPK β2 (NM_005399.3) and human AMPK α2 (NM_006252.3); The full length cDNAs of human AMPK β2 (NM_005399.3); the full length cDNA of human AMPK γ1 (NM_002733.3) had been inserted into pET28b(+); 6×His (N); made in house; host or cells: Escherichia coli BL21 CodonPlus (DE3)-RIL
Assay: Test Example 2: activation of phosphorylated human AMPK α2β2γ1 (mobility-shift kinase assay, FL-Peptide 7)
Assay type: biochemical
Settings: for EC150: compound concentration showing 150% relative to the control (100%), human AMPK α2β2γ1 phosphorylated with CaMKK2; for Emax: maximum rate of increase in activity within the measurement range, control = 100%, read-out: Emax
Description: The full length cDNAs of human AMPK β2 (NM_005399.3) and human AMPK α2 (NM_006252.3) were inserted into the MCS1 and MCS2 of the pETDuet-1 vector to prepare a human AMPK β2 and human AMPK α2 (6×His tag at the 5′ terminus) expressing plasmid. The plasmid was cotransfected with an expression plasmid, in which the full length cDNA of human AMPK γ1 (NM_002733.3) had been inserted into pET28b(+), into BL21 CodonPlus (DE3)-RIL to obtain an expression strain. The expression strain was cultured in TB medium, followed by induction with 0.5 mM IPTG, and cultured at 25° C. for 3 hours and then harvested. After ultrasonication, supernatant was collected and applied to Histrap FF column (GE) and RESOUECE Q column (GE) to prepare 12.5 mg of purified sample containing three types of subunit from 1.8 L of broth.
An expression vector, in which the full length cDNA of human CAMKK β (NM_172226.1) had been inserted into pGEX-6P-3, was transfected into BL21 Star (DE3). The expression strain was cultured in TB medium, followed by induction with 0.5 mM IPTG, and cultured at 25° C. for 3 hours and then harvested. After ultrasonication, supernatant was collected and applied to GSTrap FF column (GE) to prepare 14 mg of GST-fused CAMKK β from 720 ml of broth.
Thus, phosphorylation treatment was carried out as pretreatment.
Human AMPK α2β2γ1 in an amount to give a conversion rate of approximately 10% by reaction for 2 hours, and CaMKK2 in an amount capable of sufficiently imparting activity to AMPK for one hour were mixed in a buffer solution consisting of a 50 mM HEPES-NaOH buffer solution (pH 7.0), 100 mM NaCl, 5 mM magnesium chloride, 0.1% bovine serum albumin, 0.2 mM sodium orthovanadate(V), 1 mM ethylene glycol-bis(2-aminoethyl ether)-N,N,N′,N′-tetraacetic acid (EGTA), 5 mM disodium β-glycerophosphate, 1 mM dithiothreitol and 0.2 mM ATP, and the resulting liquid was left to stand at 25° C. for 1 to 1.5 hours to sufficiently phosphorylate AMPK.
After that, to the enzyme liquid, which had been subjected to phosphorylation treatment, a compound dissolved in DMSO was added so as to have a 1% DMSO concentration. The resulting liquid was left to stand for 10 minutes.
To the liquid, a substrate solution consisting of a 50 mM HEPES-NaOH buffer solution (pH 7.0), 100 mM NaCl, 10 mM magnesium chloride, 0.1% bovine serum albumin, 0.2 mM sodium orthovanadate(V), 1 mM ethylene glycol-bis(2-aminoethyl ether)-N,N,N′,N′-tetraacetic acid (EGTA), 5 mM disodium β-glycerophosphate, 2 mM dithiothreitol, 0.4 mM ATP and 3 μM FL-Peptide 7 (manufactured by Caliper Life Sciences, Inc.) was added in equal amount (10 μl in total). The resulting liquid was allowed to react at 25° C. for 2 hours, then 10 μl of 20 mM EDTA was added thereto to stop the reaction.
To detect phosphorylated fluorescent substrates, the reaction mixture was applied to a measuring device, LabChip EZ Reader II manufactured by Caliper Life Science, Inc., for detecting fluorescence by using differences in mobility due to differences in charge. The setting conditions for the device were pressure, −1.5 PSI; upstream voltage, −2250 V; downstream voltage, −400 V; post sample buffer sip time, 40 seconds; final delay, 120 seconds; and peak order, Product First.
A conversion rate was calculated from the peak heights of the obtained substrate and product. The conversion rate when not containing a compound was used as a control, and a concentration dependent curve was made by plotting the rate of increase in activity to the control at each concentration of a compound.

T1 sequence (P54646 whole entry): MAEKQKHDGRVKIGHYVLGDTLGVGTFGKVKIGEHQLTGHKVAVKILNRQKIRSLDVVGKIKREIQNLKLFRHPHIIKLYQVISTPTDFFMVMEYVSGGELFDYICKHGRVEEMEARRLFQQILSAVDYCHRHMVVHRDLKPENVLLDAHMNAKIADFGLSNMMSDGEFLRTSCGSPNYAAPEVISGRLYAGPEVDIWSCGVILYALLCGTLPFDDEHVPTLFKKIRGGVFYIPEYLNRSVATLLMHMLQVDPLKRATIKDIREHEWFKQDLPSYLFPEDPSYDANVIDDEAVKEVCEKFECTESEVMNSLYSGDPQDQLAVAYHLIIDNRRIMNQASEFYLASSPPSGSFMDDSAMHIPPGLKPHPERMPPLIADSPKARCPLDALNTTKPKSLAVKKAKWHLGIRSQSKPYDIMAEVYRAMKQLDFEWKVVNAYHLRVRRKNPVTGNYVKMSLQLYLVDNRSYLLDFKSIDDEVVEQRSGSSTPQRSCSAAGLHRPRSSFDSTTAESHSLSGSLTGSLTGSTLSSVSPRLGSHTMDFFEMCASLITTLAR
T1 sequence (O43741 whole entry): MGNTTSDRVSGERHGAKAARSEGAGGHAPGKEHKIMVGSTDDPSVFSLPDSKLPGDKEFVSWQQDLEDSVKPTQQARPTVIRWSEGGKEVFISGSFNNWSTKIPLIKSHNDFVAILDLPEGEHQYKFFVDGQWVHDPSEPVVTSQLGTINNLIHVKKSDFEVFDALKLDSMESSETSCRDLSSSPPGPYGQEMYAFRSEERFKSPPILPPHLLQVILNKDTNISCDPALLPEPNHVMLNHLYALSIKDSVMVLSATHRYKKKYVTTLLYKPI
T1 sequence (P54619 whole entry partner): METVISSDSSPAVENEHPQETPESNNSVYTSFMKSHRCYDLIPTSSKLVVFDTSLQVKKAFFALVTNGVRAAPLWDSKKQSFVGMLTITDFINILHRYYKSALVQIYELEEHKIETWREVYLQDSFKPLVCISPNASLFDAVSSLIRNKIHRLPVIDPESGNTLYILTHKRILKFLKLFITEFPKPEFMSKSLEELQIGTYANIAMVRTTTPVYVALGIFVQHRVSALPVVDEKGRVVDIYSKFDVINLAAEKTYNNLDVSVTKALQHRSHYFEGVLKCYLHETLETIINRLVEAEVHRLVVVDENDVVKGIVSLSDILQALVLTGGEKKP

For `COc1ccc(-c2ccc(-c3nc4cc(O[C@@H]5CO[C@H]6[C@@H]5OC[C@H]6O)[nH]c4cc3F)cc2)cc1` [Compound I-2-24], the EC150 was 11 nM and the Emax was 364%.
Work on `O=C1NCCN1c1ccc(-c2ccc(-c3nc4cc(O[C@@H]5CO[C@H]6[C@@H]5OC[C@H]6O)[nH]c4cc3F)cc2)cc1` [Compound I-1-58] yielded an EC150 of 1.3 nM and an Emax of 494%.
Compound `CNC(=O)c1ccc(-c2ccc(-c3nc4cc(O[C@@H]5CO[C@H](CO)C5)[nH]c4cc3F)cc2)cc1` [Compound I-2-88] has an EC150 of 0.62 nM and an Emax of 683%.
`CO[C@H]1[C@@H](CO)OC[C@H]1Oc1cc2nc(-c3ccc(-c4ccc(N=S(C)(C)=O)cc4)cc3)c(F)cc2[nH]1` [Compound I-2-26] gave an EC150 of 8.6 nM and an Emax of 298%.
For `CNC(=O)CCOc1ccc(-c2ccc(-c3nc4cc(O[C@@H]5CO[C@H]6[C@@H]5OC[C@H]6O)[nH]c4cc3F)cc2)cc1` [Compound I-2-54], the EC150 was 1.7 nM and the Emax was 633%.
Compound `O=C(C1CCN(c2ccc(-c3nc4cc(O[C@@H]5CO[C@H]6[C@@H]5OC[C@H]6O)[nH]c4cc3F)cc2)CC1)N1CCCC1` [Compound I-2-44] has an EC150 of 35 nM and an Emax of 661%.
Work on `CC(C)(C)P(=O)(c1ccc(-c2ccc(-c3nc4cc(O[C@@H]5CO[C@H]6[C@@H]5OC[C@H]6O)[nH]c4cc3F)cc2)cc1)C(C)(C)C` [Compound I-2-67] yielded an EC150 of 22 nM and an Emax of 555%.
`CCOC(=O)NC1CCN(c2ccc(-c3nc4cc(O[C@@H]5CO[C@H]6[C@@H]5OC[C@H]6O)[nH]c4cc3F)cc2)CC1` [Compound I-1-10] was tested, and the EC150 was 13 nM and the Emax was 490%.
Work on `O[C@@H]1CO[C@H]2[C@@H]1OC[C@H]2Oc1cc2nc(-c3ccc(-c4ccc(OC5COC5)cc4)cc3)c(F)cc2[nH]1` [Compound I-1-28] yielded an EC150 of 15 nM and an Emax of 596%.
Work on `COCC[S+]([O-])c1ccc(-c2ccc(-c3nc4cc(O[C@@H]5CO[C@H]6[C@@H]5OC[C@H]6O)[nH]c4cc3F)cc2)cc1` (some centres unmarked) [Compound I-2-93] yielded an EC150 of 1.1 nM and an Emax of 652%.
`CNS(C)(=O)=Nc1ccc(-c2ccc(-c3nc4cc(O[C@@H]5CO[C@H](CO)C5)[nH]c4cc3F)cc2)cc1` (some centres unmarked) [Compound I-2-46] was tested, and the EC150 was 2.8 nM and the Emax was 699%.
Compound `C[S+]([O-])c1ccc(-c2ccc(-c3nc4cc(O[C@@H]5CO[C@H]6[C@@H]5OC[C@H]6O)[nH]c4cc3F)cc2)cc1` (single isomer, unassigned) [Compound I-2-08] has an EC150 of 1.6 nM and an Emax of 598%.
`Cc1cc(-c2ccc(N=S(C)(C)=O)cc2)ccc1-c1nc2cc(O[C@@H]3CO[C@H]4[C@@H]3OC[C@H]4O)[nH]c2cc1F` [Compound I-1-48] gave an EC150 of 2.9 nM and an Emax of 576%.
With `O[C@@H]1CO[C@H]2[C@@H]1OC[C@H]2Oc1cc2nc(-c3ccc(C#CC4CCNCC4)cc3)c(F)cc2[nH]1` [Compound I-2-64] the EC150 was 16 nM and the Emax was 536%.
`COCCOc1ccc(-c2ccc(-c3nc4cc(O[C@@H]5CO[C@H]6[C@@H]5OC[C@H]6O)[nH]c4cc3F)cc2)cn1` [Compound I-2-40] was tested, and the EC150 was 16 nM and the Emax was 384%.
With `COCCOC1CCN(c2ccc(-c3nc4cc(O[C@@H]5CO[C@H]6[C@@H]5OC[C@H]6O)[nH]c4cc3F)cc2)CC1` [Compound I-2-34] the EC150 was 20 nM and the Emax was 425%.
Compound `CNS(C)(=O)=Nc1ccc(-c2ccc(-c3nc4cc(O[C@@H]5CO[C@H]6[C@@H]5OC[C@H]6O)[nH]c4cc3F)cc2)cc1` (some centres unmarked) [Compound I-2-04] has an EC150 of 0.67 nM and an Emax of 638%.
`CC(=O)Nc1ccc(-c2ccc(-c3nc4cc(O[C@@H]5CO[C@H]6[C@@H]5OC[C@H]6O)[nH]c4cc3F)cc2)cc1` [Compound I-1-35] was tested, and the EC150 was 5.9 nM and the Emax was 432%.
`COC(=O)N1CCC(Oc2ccc(-c3ccc(-c4nc5cc(O[C@@H]6CO[C@H]7[C@@H]6OC[C@H]7O)[nH]c5cc4F)cc3)cc2)C1` (some centres unmarked) [Compound I-2-51] was tested, and the EC150 was 9.7 nM and the Emax was 590%.
With `CP(C)(=O)c1ccc(-c2ccc(-c3nc4cc(O[C@@H]5CO[C@H]6[C@@H]5OC[C@H]6O)[nH]c4cc3F)cc2)cc1` [Compound I-2-56] the EC150 was 1.6 nM and the Emax was 618%.
In the case of `O[C@@H]1CO[C@H]2[C@@H]1OC[C@H]2Oc1cc2nc(-c3ccc(-c4ccc(C5=NCCN5)cc4)cc3)c(F)cc2[nH]1` [Compound I-1-38], the EC150 was 0.99 nM and the Emax was 470%.
`CS(C)(=O)=Nc1ccc(-c2ccc(-c3nc4cc(O[C@H]5CCOC5)[nH]c4cc3F)cc2)cc1` [Compound I-1-46] was tested, and the EC150 was 6.6 nM and the Emax was 276%.
`CNS(=O)(=O)c1ccc(-c2ccc(-c3nc4cc(O[C@@H]5CO[C@H]6[C@@H]5OC[C@H]6O)[nH]c4cc3F)cc2)nc1` [Compound I-1-32] was tested, and the EC150 was 8 nM and the Emax was 456%.
`O[C@@H]1CO[C@H]2[C@@H]1OC[C@H]2Oc1cc2nc(-c3ccc(-c4ccc(CN5CCOCC5)cc4)cc3)c(F)cc2[nH]1` [Compound I-2-22] was tested, and the EC150 was 5.9 nM and the Emax was 348%.
`COCCCc1ccc(-c2ccc(-c3nc4cc(O[C@@H]5CO[C@H]6[C@@H]5OC[C@H]6O)[nH]c4cc3F)cc2)cc1` [Compound I-2-29] gave an EC150 of 48 nM and an Emax of 367%.
Work on `CS(C)(=O)=Nc1ccc(-c2ccc(-c3nc4cc(O[C@@H]5CO[C@H](CO)C5(F)F)[nH]c4cc3F)cc2)cc1` [Compound I-2-43] yielded an EC150 of 6.2 nM and an Emax of 514%.
Compound `CONC(=O)c1ccc(-c2ccc(-c3nc4cc(O[C@@H]5CO[C@H](CO)C5)[nH]c4cc3F)cc2)cc1` [Compound I-2-86] has an EC150 of 0.53 nM and an Emax of 592%.
With `COCCOc1ccc(-c2ccc(-c3nc4cc(O[C@@H]5CO[C@H]6[C@@H]5OC[C@H]6O)[nH]c4cc3F)cc2)nc1` [Compound I-2-52] the EC150 was 7.2 nM and the Emax was 532%.
Work on `CS(C)(=O)=Nc1ccc(-c2ccc(-c3nc4cc(O[C@H]5CCOC5)[nH]c4cc3Cl)cc2)cc1` [Compound I-1-01] yielded an EC150 of 24 nM and an Emax of 282%.
For `CC(=O)NC1CC=C(c2ccc(-c3nc4cc(O[C@@H]5CO[C@H](CO)C5)[nH]c4cc3F)cc2)CC1` (some centres unmarked) [Compound I-2-92], the EC150 was 0.87 nM and the Emax was 702%.
`O=C(Nc1ccc(-c2ccc(-c3nc4cc(O[C@@H]5CO[C@H]6[C@@H]5OC[C@H]6O)[nH]c4cc3F)cc2)cc1)[C@@H]1C[C@@H]1F` [Compound I-2-05] gave an EC150 of 6.8 nM and an Emax of 632%.
Compound `O[C@@H]1CO[C@H]2[C@@H]1OC[C@H]2Oc1cc2nc(-c3ccc(N4CCC(OC5CCNC5)CC4)cc3)c(F)cc2[nH]1` (some centres unmarked) [Compound I-2-57] has an EC150 of 26 nM and an Emax of 601%.
For `O[C@@H]1CO[C@H]2[C@@H]1OC[C@H]2Oc1cc2nc(-c3ccc(-c4ccc(N5CCOCC5)cc4)cc3)c(F)cc2[nH]1` [Compound I-2-20], the EC150 was 2.3 nM and the Emax was 375%.
Compound `CS(C)(=O)=Nc1ccc(-c2ccc(-c3nc4cc(O[C@H]5CO[C@H](CO)[C@@H](O)C5)[nH]c4cc3F)cc2)cc1` [Compound I-1-04] has an EC150 of 6.2 nM and an Emax of 332%.
